From PMC10480161, “Identification of potent and selective N-myristoyltransferase inhibitors of Plasmodium vivax liver stage hypnozoites and schizonts” (Nature Communications, 2023) come the findings set out here.

The target of data set [1] is PvNMT (Plasmodium vivax, UniProt A5K1A2). The data set is described as follows: NMT activity assay (CPM detection of free CoA), PvNMT.
Data set [2] concerns the target T1, HsNMT1 (Homo sapiens, UniProt P30419).
T1 sequence (P30419 1-496): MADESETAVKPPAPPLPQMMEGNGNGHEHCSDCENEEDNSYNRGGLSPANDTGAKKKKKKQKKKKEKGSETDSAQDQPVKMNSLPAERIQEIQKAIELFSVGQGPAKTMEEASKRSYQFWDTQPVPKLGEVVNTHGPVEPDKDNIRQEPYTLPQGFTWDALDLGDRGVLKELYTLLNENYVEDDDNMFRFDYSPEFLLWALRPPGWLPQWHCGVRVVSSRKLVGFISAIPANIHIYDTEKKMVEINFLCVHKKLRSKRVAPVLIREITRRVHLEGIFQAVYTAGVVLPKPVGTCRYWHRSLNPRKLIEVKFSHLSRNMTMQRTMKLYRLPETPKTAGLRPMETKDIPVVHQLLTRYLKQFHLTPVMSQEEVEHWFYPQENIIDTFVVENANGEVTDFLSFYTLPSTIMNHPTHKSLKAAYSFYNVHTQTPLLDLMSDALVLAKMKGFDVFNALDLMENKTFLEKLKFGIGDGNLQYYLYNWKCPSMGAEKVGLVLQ
The data set is described as follows: NMT activity assay (CPM detection of free CoA), HsNMT.

The subject of data set [3] is P. falciparum NF54. The data set is described as follows: P. falciparum blood stage assay (SYBR Green). It counts as cell-based, Plasmodium falciparum. Particulars: 72 h; for P. falciparum blood-stage development (parasite DNA level fluorescence): untreated = 129. As to the method:
To assess whether any of the PvNMTis developed here could qualify as TCP-1 candidates, we assessed the effect of each compound on blood-stage P. falciparum parasites, as there is currently no well-established in vitro platform for screening P. vivax blood-stage parasites. Synchronized P. falciparum NF54 ring-stage parasites were treated for 72 h with each compound at various concentrations, ranging from 0.625 µM to 10 µM, and parasite DNA replication was measured using a fluorescent DNA binding dye (SYBR Green).
Sorbitol-synchronized P. falciparum NF54 ring-stage parasites were cultured at a parasitemia of 0.5% and hematocrit of 1.5% in a 96-well microtiter plate. Parasites were treated with each NMT inhibitor compound at 0.625, 1.25, 2.5, 5, or 10 µM for 72 h. Direct lysis of the blood cells to release the parasite DNA was performed by adding 100 μl of LBS buffer containing SYBR green I DNA binding dye to each well. […] ICEstimator regression analysis (http://www.antimalarial-icestimator.net/) was used to obtain relative IC50 values for each compound.

Data set [4] can be described thus: HepG2 cytotoxicity assay (Live/Dead staining). Particulars: human, HepG2 cells. The essentials: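 Live/dead fluorescence microscopy (calcein-AM and ethidium homodimer, 1 µM each) read at 72 h post-treatment. Compounds dosed at 1 to 20 µM on HepG2 cells, with washing and fresh compound every 24 h.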

Sequence of PvNMT (A5K1A2 entry or part of it): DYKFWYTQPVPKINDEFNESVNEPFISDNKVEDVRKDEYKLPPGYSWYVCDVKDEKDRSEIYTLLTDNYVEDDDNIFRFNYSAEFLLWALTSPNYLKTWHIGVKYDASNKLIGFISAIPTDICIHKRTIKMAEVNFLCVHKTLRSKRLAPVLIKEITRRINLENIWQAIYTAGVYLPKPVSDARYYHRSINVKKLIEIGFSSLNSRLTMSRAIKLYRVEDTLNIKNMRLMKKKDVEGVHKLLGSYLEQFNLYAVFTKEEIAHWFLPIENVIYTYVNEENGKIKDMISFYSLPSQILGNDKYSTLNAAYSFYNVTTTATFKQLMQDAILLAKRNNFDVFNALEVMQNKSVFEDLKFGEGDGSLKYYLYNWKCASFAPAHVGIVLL

Take `Cc1nn(C)c(C)c1CCOc1cc(F)ccc1-c1cccc(N2CCNCC2)c1` [Compound 12f]: the IC50 in data set [1] (PvNMT IC50, mean of two or more determinations) is 0.0159 µM; in data set [2] it was 0.699 µM; in data set [3] (Plasmodium falciparum, NF54, ring-stage parasites, relative IC50), 0.61 µM. Besides, the SI in data set [1] (enzyme selectivity, HsNMT IC50/PvNMT IC50) was 43.9. Further, the “P. falciparum blood-stage development (parasite DNA level fluorescence)” value in data set [3] (0.625 uM) is given as 118.6; in data set [3] (1.25 uM), 121.1; in data set [3] (2.5 uM), 112.3; in data set [3] (5 uM) it was 99.32; in data set [3] (10 uM), 89.25. For the same compound, the IC50 at 48 h in data set [4] is > 20 µM.

A word on the IC50: it is the midpoint of a concentration-inhibition curve.
